Experimental findings from patent publication US10414811B2, “Protease-resistant lipidated GLP-1 analogs” (MEDIMMUNE LIMITED, priority 2015, dated 2019) are described below.

Type in all cases: cell-based
The target of one assay is T1, GLP-1R (INS1e assay) (Rattus norvegicus, UniProt P32301).
T1 construct: endogenous in cells; host or cells: INS-1E cells
T1 sequence (P32301 22-463): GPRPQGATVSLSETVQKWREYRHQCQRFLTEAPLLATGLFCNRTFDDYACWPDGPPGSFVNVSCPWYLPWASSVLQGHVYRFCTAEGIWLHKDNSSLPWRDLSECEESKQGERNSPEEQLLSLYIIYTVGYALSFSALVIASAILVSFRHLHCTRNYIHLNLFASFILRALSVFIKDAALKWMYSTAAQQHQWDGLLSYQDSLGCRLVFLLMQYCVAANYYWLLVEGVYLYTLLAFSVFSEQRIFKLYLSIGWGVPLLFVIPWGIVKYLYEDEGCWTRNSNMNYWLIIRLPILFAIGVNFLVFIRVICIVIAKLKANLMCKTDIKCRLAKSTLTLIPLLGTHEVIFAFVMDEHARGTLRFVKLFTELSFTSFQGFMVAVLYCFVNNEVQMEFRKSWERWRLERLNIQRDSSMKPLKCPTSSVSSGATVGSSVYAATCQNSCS
Put plainly: INS1e assay, cAMP activity at GLP-1R. Particulars: mono-lipidated peptides. In a few lines: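 cAMP was quantified by two-step HTRF, using anti-cAMP cryptate donor and cAMP-d2 acceptor, each diluted 1/20 in conjugate and lysis buffer. EC50 values of the synthetic peptides were derived from the cAMP readout.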

Assay [1] addresses T2, human glucose-dependent insulinotropic peptide receptor (GIPR) (Homo sapiens, UniProt P48546).
T2 construct: expressed in transfected cells
T2 sequence (P48546 22-466): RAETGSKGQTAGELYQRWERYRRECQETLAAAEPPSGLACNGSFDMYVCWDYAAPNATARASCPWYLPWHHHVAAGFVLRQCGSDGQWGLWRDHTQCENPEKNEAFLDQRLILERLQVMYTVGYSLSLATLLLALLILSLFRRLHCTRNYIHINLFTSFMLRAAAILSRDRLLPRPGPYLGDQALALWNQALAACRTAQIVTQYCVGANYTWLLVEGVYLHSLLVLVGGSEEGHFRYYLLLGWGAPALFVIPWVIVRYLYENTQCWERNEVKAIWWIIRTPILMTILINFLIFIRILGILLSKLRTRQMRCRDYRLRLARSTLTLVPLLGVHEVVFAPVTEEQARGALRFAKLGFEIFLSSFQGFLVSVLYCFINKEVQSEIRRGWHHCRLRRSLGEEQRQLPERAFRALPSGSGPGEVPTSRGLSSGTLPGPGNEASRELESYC
The experiment in a line: cAMP assay, human GIPR cells. Particulars: cAMP assay. In a few lines: (§1)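 Peptide-stimulated cAMP measured by two-step HTRF after a 30 min room-temperature incubation with receptor-expressing cells (hGLP-1R, hGIPR at 1×10^5 cells/ml; hGCGR at 2×10^5 cells/ml). Duplicate dilutions; EC50 from 4-parameter logistic fit of % Delta F.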
On the technique in general: Cyclic AMP is a second messenger, typically raised through Gs and lowered through Gi signalling.

In assay [2] the target is T3, human glucagon receptor (GCGR) (Homo sapiens, UniProt P47871).
T3 construct: expressed in transfected cells
T3 sequence (P47871 26-477): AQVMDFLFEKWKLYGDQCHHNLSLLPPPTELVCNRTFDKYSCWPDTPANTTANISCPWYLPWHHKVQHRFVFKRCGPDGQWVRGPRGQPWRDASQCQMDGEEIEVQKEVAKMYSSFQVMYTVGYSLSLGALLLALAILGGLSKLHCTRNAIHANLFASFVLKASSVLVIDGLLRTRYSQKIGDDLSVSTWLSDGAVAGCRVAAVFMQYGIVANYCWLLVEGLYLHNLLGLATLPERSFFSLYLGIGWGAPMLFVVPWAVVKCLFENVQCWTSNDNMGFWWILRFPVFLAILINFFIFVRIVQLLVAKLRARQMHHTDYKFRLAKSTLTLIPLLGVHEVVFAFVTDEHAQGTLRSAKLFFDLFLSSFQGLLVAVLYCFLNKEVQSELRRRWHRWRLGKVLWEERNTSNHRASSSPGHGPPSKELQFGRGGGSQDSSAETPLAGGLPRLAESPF
Put plainly: cAMP assay, human GCGR cells. Particulars: cAMP assay. In a few lines: as §1

In assay [3] the target is T4, human GLP-1 receptor (GLP-1R) (Homo sapiens, UniProt P43220).
T4 construct: expressed in transfected cells
T4 sequence (P43220 24-463): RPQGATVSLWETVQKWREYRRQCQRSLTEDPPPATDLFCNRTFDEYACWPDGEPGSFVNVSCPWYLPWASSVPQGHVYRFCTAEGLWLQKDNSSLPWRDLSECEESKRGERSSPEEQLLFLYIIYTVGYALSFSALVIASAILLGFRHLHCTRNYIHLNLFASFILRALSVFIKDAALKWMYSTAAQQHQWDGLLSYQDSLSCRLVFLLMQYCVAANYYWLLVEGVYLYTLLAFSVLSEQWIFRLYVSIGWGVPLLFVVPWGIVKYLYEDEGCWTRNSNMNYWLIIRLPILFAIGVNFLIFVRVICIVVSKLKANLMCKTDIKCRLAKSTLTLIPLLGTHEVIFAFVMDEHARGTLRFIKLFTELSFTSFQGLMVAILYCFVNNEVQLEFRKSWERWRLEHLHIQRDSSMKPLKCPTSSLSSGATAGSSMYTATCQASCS
The experiment in a line: cAMP assay, human GLP-1R cells. In a few lines: as §1

Setting [4] is: mean of n1 and n2, read-out: INS1e assay EC50 Mean pM GLP-1R.
The mark [5] stands for this setting: replicate n1, read-out: INS1e assay EC50 GLP-1R n1.
Setting [6] is: replicate n2, read-out: INS1e assay EC50 GLP-1R n2.
[7] abbreviates: first determination (n1), read-out: Primary assay EC50 GIP-R (n1).
[8] abbreviates: second determination (n2), read-out: Primary assay EC50 GIP-R (n2).
[9] abbreviates: first determination (n1), read-out: Primary assay EC50 Gluc-R (n1).
Setting [10] is: second determination (n2), read-out: Primary assay EC50 Gluc-R (n2).
[11] abbreviates: cAMP assay, first determination (n1), read-out: Primary assay EC50 GLP-1R n1.
Setting [12] is: cAMP assay, second determination (n2), read-out: Primary assay EC50 GLP-1R n2.
[13] abbreviates: mean of n1 and n2, read-out: Mean pM GLP-1R.

Where two headings read alike, the source gives them in different places. Numbered stars: 1 amine (or outer) side, 2 acyl side, 3 side chain; on linkers, the order of the positions; unused ones are H or OH. Square brackets hold non-standard residues; d marks the D form. Side chains are listed from the residue outwards. Peptide text beside a SMILES is read from it. * marks the point of attachment. γGlu = O=C(O)[C@H](CCC(=O)[*:2])N[*:1]; Palmitoyl = CCCCCCCCCCCCCCCC(=O)*; αMeF = C[C@](N)(Cc1ccccc1)C(=O)O; αMeK = C[C@](N)(CCCCN)C(=O)O; αMeS = C[C@](N)(CO)C(=O)O; Aib = CC(C)(N)C(=O)O Where only a bound is given, the exact number is not on record here.

Regarding `CCCCCCCCCCCCCCCC(=O)N[C@@H](CCC(=O)NCCCC[C@H](NC(=O)[C@H](C)NC(=O)[C@H](C)NC(=O)[C@H](CCC(=O)O)NC(=O)CNC(=O)[C@H](CCC(=O)O)NC(=O)[C@H](CC(C)C)NC(=O)[C@](C)(Cc1ccccc1)NC(=O)[C@H](CO)NC(=O)[C@](C)(CO)NC(=O)[C@@H](NC(=O)[C@H](CC(=O)O)NC(=O)[C@H](CO)NC(=O)[C@@H](NC(=O)[C@](C)(Cc1ccccc1)NC(=O)[C@H](CO)NC(=O)CNC(=O)[C@H](CCC(=O)O)NC(=O)C(C)(C)NC(=O)[C@@H](N)Cc1c[nH]cn1)[C@@H](C)O)C(C)C)C(=O)N[C@@H](CCC(=O)O)C(=O)N[C@@](C)(Cc1ccccc1)C(=O)N[C@H](C(=O)N[C@@H](C)C(=O)N[C@@](C)(Cc1ccccc1)C(=O)N[C@H](C(=O)N[C@H](C(=O)N[C@@](C)(CCCCN)C(=O)NCC(=O)NCC(N)=O)C(C)C)C(C)C)[C@@H](C)CC)C(=O)O` [compound 80], the EC50 is 2610 pM on GLP-1R (INS1e assay) (setting [4]); 3890 pM on GLP-1R (INS1e assay) (setting [5]); 1330 pM on GLP-1R (INS1e assay) (setting [6]); at least 28 nM in assay [1] (setting [7]); at least 28 nM in assay [1] (setting [8]); at least 28 nM in assay [2] (setting [9]). Besides, the EC50 was at least 28 nM in assay [2] (setting [10]), 31 pM in assay [3] (setting [11]), 17 pM in assay [3] (setting [12]) and 24 pM in assay [3] (setting [13]).
Consider `CCCCCCCCCCCCCCCC(=O)N[C@@H](CCC(=O)NCCCC[C@H](NC(=O)[C@H](CCC(=O)O)NC(=O)CNC(=O)[C@H](CCC(=O)O)NC(=O)[C@H](CC(C)C)NC(=O)[C@](C)(Cc1ccccc1)NC(=O)[C@H](CO)NC(=O)[C@](C)(CO)NC(=O)[C@@H](NC(=O)[C@H](CC(=O)O)NC(=O)[C@H](CO)NC(=O)[C@@H](NC(=O)[C@](C)(Cc1ccccc1)NC(=O)[C@H](CO)NC(=O)CNC(=O)[C@H](CCC(=O)O)NC(=O)C(C)(C)NC(=O)[C@@H](N)Cc1c[nH]cn1)[C@@H](C)O)C(C)C)C(=O)N[C@@H](C)C(=O)N[C@@](C)(CCCCN)C(=O)N[C@@H](CCC(=O)O)C(=O)N[C@@](C)(Cc1ccccc1)C(=O)N[C@H](C(=O)N[C@@H](C)C(=O)N[C@@](C)(Cc1ccccc1)C(=O)N[C@H](C(=O)N[C@H](C(=O)N[C@@](C)(CCCCN)C(=O)NCC(=O)NCC(N)=O)C(C)C)C(C)C)[C@@H](C)CC)C(=O)O` [compound 82] (H-H[Aib]EGS[αMeF]TSDV[αMeS]S[αMeF]LEGEK([γGlu-Palmitoyl])A[αMeK]E[αMeF]IA[αMeF]VV[αMeK]GG-NH2; N-terminus assumed), for which the EC50 on GLP-1R (INS1e assay) (setting [4]) is 195 pM; at GLP-1R (INS1e assay) (setting [5]), 151 pM; on GLP-1R (INS1e assay) (setting [6]), 238 pM; in assay [1] (setting [7]), at least 27 nM; in assay [1] (setting [8]) it was at least 27 nM; in assay [2] (setting [9]), at least 27 nM. Also, the EC50 in assay [2] (setting [10]) is at least 27 nM; in assay [3] (setting [11]), 3 pM; in assay [3] (setting [12]), 2 pM; in assay [3] (setting [13]), 2.5 pM.
`CCCCCCCCCCCCCCCC(=O)N[C@@H](CCC(=O)NCCCC[C@H](NC(=O)CNC(=O)[C@H](CCC(=O)O)NC(=O)[C@H](CC(C)C)NC(=O)[C@](C)(Cc1ccccc1)NC(=O)[C@H](CO)NC(=O)[C@](C)(CO)NC(=O)[C@@H](NC(=O)[C@H](CC(=O)O)NC(=O)[C@H](CO)NC(=O)[C@@H](NC(=O)[C@](C)(Cc1ccccc1)NC(=O)[C@H](CO)NC(=O)CNC(=O)[C@H](CCC(=O)O)NC(=O)C(C)(C)NC(=O)[C@@H](N)Cc1c[nH]cn1)[C@@H](C)O)C(C)C)C(=O)N[C@@H](C)C(=O)N[C@@H](C)C(=O)N[C@@](C)(CCCCN)C(=O)N[C@@H](CCC(=O)O)C(=O)N[C@@](C)(Cc1ccccc1)C(=O)N[C@H](C(=O)N[C@@H](C)C(=O)N[C@@](C)(Cc1ccccc1)C(=O)N[C@H](C(=O)N[C@H](C(=O)N[C@@](C)(CCCCN)C(=O)NCC(=O)NCC(N)=O)C(C)C)C(C)C)[C@@H](C)CC)C(=O)O` [compound 83] (H-H[Aib]EGS[αMeF]TSDV[αMeS]S[αMeF]LEGK([γGlu-Palmitoyl])AA[αMeK]E[αMeF]IA[αMeF]VV[αMeK]GG-NH2): the EC50 at GLP-1R (INS1e assay) (setting [4]) was 194 pM; at GLP-1R (INS1e assay) (setting [5]), 137 pM; at GLP-1R (INS1e assay) (setting [6]), 250 pM; in assay [1] (setting [7]), at least 28 nM; in assay [1] (setting [8]), at least 28 nM; in assay [2] (setting [9]) it was at least 28 nM. Moreover, the EC50 is at least 28 nM in assay [2] (setting [10]), 3.2 pM in assay [3] (setting [11]), 4 pM in assay [3] (setting [12]) and 3.6 pM in assay [3] (setting [13]).
For `CCCCCCCCCCCCCCCC(=O)N[C@@H](CCC(=O)NCCCC[C@H](NC(=O)[C@](C)(Cc1ccccc1)NC(=O)[C@H](CO)NC(=O)[C@](C)(CO)NC(=O)[C@@H](NC(=O)[C@H](CC(=O)O)NC(=O)[C@H](CO)NC(=O)[C@@H](NC(=O)[C@](C)(Cc1ccccc1)NC(=O)[C@H](CO)NC(=O)CNC(=O)[C@H](CCC(=O)O)NC(=O)C(C)(C)NC(=O)[C@@H](N)Cc1c[nH]cn1)[C@@H](C)O)C(C)C)C(=O)N[C@@H](CCC(=O)O)C(=O)NCC(=O)N[C@@H](CCC(=O)O)C(=O)N[C@@H](C)C(=O)N[C@@H](C)C(=O)N[C@@](C)(CCCCN)C(=O)N[C@@H](CCC(=O)O)C(=O)N[C@@](C)(Cc1ccccc1)C(=O)N[C@H](C(=O)N[C@@H](C)C(=O)N[C@@](C)(Cc1ccccc1)C(=O)N[C@H](C(=O)N[C@H](C(=O)N[C@@](C)(CCCCN)C(=O)NCC(=O)NCC(N)=O)C(C)C)C(C)C)[C@@H](C)CC)C(=O)O` [compound 86] (H-H[Aib]EGS[αMeF]TSDV[αMeS]S[αMeF]K([γGlu-Palmitoyl])EGEAA[αMeK]E[αMeF]IA[αMeF]VV[αMeK]GG-NH2), the EC50 was 65 pM on GLP-1R (INS1e assay) (setting [4]); 45.3 pM at GLP-1R (INS1e assay) (setting [5]); 84.5 pM at GLP-1R (INS1e assay) (setting [6]); at least 28 nM in assay [1] (setting [7]); at least 28 nM in assay [1] (setting [8]); at least 28 nM in assay [2] (setting [9]). The EC50 in assay [2] (setting [10]) was at least 28 nM; in assay [3] (setting [11]), 1.3 pM; in assay [3] (setting [12]) it was 1.7 pM; in assay [3] (setting [13]), 1.5 pM.
`CCCCCCCCCCCCCCCC(=O)N[C@@H](CCC(=O)NCCCC[C@H](NC(=O)[C@H](CO)NC(=O)[C@](C)(CO)NC(=O)[C@@H](NC(=O)[C@H](CC(=O)O)NC(=O)[C@H](CO)NC(=O)[C@@H](NC(=O)[C@](C)(Cc1ccccc1)NC(=O)[C@H](CO)NC(=O)CNC(=O)[C@H](CCC(=O)O)NC(=O)C(C)(C)NC(=O)[C@@H](N)Cc1c[nH]cn1)[C@@H](C)O)C(C)C)C(=O)N[C@@H](CC(C)C)C(=O)N[C@@H](CCC(=O)O)C(=O)NCC(=O)N[C@@H](CCC(=O)O)C(=O)N[C@@H](C)C(=O)N[C@@H](C)C(=O)N[C@@](C)(CCCCN)C(=O)N[C@@H](CCC(=O)O)C(=O)N[C@@](C)(Cc1ccccc1)C(=O)N[C@H](C(=O)N[C@@H](C)C(=O)N[C@@](C)(Cc1ccccc1)C(=O)N[C@H](C(=O)N[C@H](C(=O)N[C@@](C)(CCCCN)C(=O)NCC(=O)NCC(N)=O)C(C)C)C(C)C)[C@@H](C)CC)C(=O)O` [compound 87]: the EC50 was 53 pM on GLP-1R (INS1e assay) (setting [4]); 43.6 pM on GLP-1R (INS1e assay) (setting [5]); 62.2 pM at GLP-1R (INS1e assay) (setting [6]); at least 28 nM in assay [1] (setting [7]); at least 28 nM in assay [1] (setting [8]); at least 28 nM in assay [2] (setting [9]). Moreover, the EC50 was at least 28 nM in assay [2] (setting [10]), 1.6 pM in assay [3] (setting [11]), 1.6 pM in assay [3] (setting [12]) and 1.6 pM in assay [3] (setting [13]).
